# Earlier results as cited in patent US20130344087A1, “COMBINATIONS OF ANTI-S1P ANTIBODIES AND SHPINGOLIPID PATHWAY INHIBITORS” (priority 2010, published 2013).
# Key:
# ceramide synthase 2 = target: T1, ceramide synthase 2 (Homo sapiens, UniProt Q96G23); details: human pulmonary artery endothelial cells
# T1 construct: endogenous in cells; host or cells: human pulmonary artery endothelial cells
# T1 sequence (Q96G23 1-380): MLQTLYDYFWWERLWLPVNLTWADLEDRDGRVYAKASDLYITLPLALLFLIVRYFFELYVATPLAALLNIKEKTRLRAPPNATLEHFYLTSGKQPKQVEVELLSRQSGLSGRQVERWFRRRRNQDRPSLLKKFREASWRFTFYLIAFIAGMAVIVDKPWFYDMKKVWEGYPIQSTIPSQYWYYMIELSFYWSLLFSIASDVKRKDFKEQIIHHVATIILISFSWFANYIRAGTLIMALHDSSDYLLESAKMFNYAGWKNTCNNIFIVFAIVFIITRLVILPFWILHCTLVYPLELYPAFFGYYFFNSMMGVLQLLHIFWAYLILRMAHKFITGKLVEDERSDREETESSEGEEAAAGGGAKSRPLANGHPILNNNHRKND
# SPHK 2 = target: T2, SPHK 2 (Homo sapiens, UniProt Q9NRA0)
# T2 sequence (Q9NRA0 1-654): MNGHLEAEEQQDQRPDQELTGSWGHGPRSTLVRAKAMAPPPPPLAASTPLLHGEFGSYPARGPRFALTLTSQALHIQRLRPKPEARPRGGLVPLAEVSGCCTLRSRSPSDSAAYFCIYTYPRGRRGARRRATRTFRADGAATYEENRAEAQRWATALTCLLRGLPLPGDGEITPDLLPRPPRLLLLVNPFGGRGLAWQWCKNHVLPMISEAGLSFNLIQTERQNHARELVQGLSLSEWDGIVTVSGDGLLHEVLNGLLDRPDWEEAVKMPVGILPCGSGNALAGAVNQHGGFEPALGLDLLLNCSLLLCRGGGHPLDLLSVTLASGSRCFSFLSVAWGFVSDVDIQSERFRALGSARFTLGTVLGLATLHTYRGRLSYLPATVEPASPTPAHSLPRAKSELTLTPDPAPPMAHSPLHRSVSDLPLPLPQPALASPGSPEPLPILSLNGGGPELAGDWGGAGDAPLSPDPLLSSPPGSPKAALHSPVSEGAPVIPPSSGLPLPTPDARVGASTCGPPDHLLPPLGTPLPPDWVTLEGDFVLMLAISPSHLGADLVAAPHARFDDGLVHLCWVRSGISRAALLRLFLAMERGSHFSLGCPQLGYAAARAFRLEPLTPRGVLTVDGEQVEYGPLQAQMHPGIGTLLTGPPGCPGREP
# [1] = test system: human leukemia U937 cells
# [2] = test system: human leukemia Jurkat cells
# [3] = test system: leukemic blasts isolated from patients with acute myelogenous leukemia; details: blasts from AML patients
# [4] = test system: normal peripheral blood mononuclear leukocytes
# AML xenograft tumors = details: in vivo
# ERK2 = ERK2 (Homo sapiens, UniProt P28482); details: at concentrations up to 60 μM
# Chain of ERK2 (P28482 whole entry, species assumed): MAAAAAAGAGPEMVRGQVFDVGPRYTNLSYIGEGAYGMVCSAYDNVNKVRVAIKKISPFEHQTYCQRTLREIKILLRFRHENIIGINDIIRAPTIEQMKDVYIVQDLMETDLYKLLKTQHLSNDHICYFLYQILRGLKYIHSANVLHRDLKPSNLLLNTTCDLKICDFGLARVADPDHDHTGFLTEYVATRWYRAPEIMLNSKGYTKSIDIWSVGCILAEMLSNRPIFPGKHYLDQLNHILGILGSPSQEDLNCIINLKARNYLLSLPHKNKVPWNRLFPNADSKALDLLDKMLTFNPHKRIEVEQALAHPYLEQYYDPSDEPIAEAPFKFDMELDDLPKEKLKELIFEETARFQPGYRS
# PI3-kinase = details: at concentrations up to 60 μM
# PKCα = PKCα (Homo sapiens, UniProt P17252); details: at concentrations up to 60 μM
# [5] = test system: human cancer cell lines (T-24, MCF-7, NCl/ADR, and MCF-7NP); details: range across cell lines, read-out: IC50, inhibition of proliferation
smiles,measurement,setting,value
"CCCCCCCCc1ccc(CCC(N)(CO)CO)cc1.Cl [FTY720, 2-amino-2[2-(4-octylphenyl)ethyl]propane-1,3-diol hydrochloride]","cellular levels of dihydroceramides, ceramides, sphingosine, and S1P",ceramide synthase 2,decreased cellular levels
same,inhibition of ceramide synthase 2,ceramide synthase 2,inhibit ceramide synthase 2
same,levels of dihydrosphingosine and dihydrosphingosine 1-phosphate (DHS1P),ceramide synthase 2; mediated by SPHK1 activity,increased levels
"CCCCCc1ccc(/C=C/[C@H](O)[C@@H](CO)NC)cc1 [SK1-I, (2R,3S,4E)-N-methyl-5-(4′-pentylphenyl)-2-aminopent-4-ene-1,3-diol]",inhibition of SPHK 2,SPHK 2,does not inhibit
same,inhibition of PKC,PKC,does not inhibit
same,growth and survival of U937 cells,[1],decrease growth and survival
same,growth and survival of Jurkat cells,[2],decrease growth and survival
same,induction of apoptosis in leukemic blasts,[3],potently induces apoptosis
same,effect on normal peripheral blood mononuclear leukocytes,[4],sparing
same,growth of AML xenograft tumors,AML xenograft tumors,markedly reduces growth
same,S1P levels,S1P and ceramide levels,decreases S1P levels
same,levels of proapoptotic precursor ceramide,S1P and ceramide levels,increases levels
"Oc1ccc(Nc2nc(-c3ccc(Cl)cc3)cs2)cc1 [SPHK I2, 4-[[4-(4-chlorophenyl)-2-thiazolyl]amino]-phenol]",inhibition of ERK2,ERK2,no inhibition
same,inhibition of PI3-kinase,PI3-kinase,no inhibition
same,inhibition of PKCα,PKCα,no inhibition
same,IC50,[5],900 to 4600 nM
"CCCCCCCCCCCCCCC[C@H](O)[C@@H](N)CO [safingol, L-threo-dihydrosphingosine]",cytotoxicity to leukemia cells,leukemia cells,cytotoxic
